Legend:
mGluR2 = mGluR2 functional assay (Ca2+/Fluo-4, mGlu2/Gqo5-HEK293 cells); assay type: cell-based; details: 0.1 mM compound
Protocol: Culture media, serum, antibiotics and buffers for cell culture were obtained from Invitrogen (Paisley, UK). The Fluo-4/AM dye was obtained from Molecular Probes (Eugene, OR, USA), and Glu was purchased from Sigma-Aldrich. The construction and basic pharmacological characterization of the stable mGlu2/Gqo5-HEK293 cell line has been described previously.
Cell culture and Ca^2+/Fluo-4 Assay. The mGlu2/Gqo5-HEK293 cells were cultured in Dulbecco’s Modified Eagle Medium-Glutamax-I supplemented with 100 U/mL penicillin, 100 µg/mL streptomycin, 5% dialyzed fetal bovine serum, 100 µg/mL zeocin and 1 mg/mL G418. The cells were split into poly-D-lysine-coated black 96-well plates with clear bottoms (6 × 10^4 cells/well). The following day, the culture medium was aspirated, and the cells were incubated in 50 µL assay buffer (Hanks Buffered Salt Solution containing 20 mM HEPES, 1 mM CaCl2, 1 mM MgCl2 and 2.5 mM probenecid, pH 7.4) supplemented with […] Fluo–4/AM at 37 °C for 1 h. […] The 96-well plate was assayed in a FLEXStation (Molecular Devices, Crawley, UK) measuring emission (in fluorescence units (FU)) at 525 nm caused by excitation at 485 nm before and up to 90 s after the addition of 33.3 µL agonist-containing assay buffer. […]

GluK5 = target: T1, GluK5 (Rattus norvegicus, UniProt Q63273); test: Radioligand binding at recombinant homomeric GluK5 in Sf9 membranes; details: recombinant rat homomeric receptor, [3H]-kainic acid, mean ± SEM
T1 construct: made in house; host or cells: Sf9 insect cells (membranes)
T1 sequence (Q63273 15-979): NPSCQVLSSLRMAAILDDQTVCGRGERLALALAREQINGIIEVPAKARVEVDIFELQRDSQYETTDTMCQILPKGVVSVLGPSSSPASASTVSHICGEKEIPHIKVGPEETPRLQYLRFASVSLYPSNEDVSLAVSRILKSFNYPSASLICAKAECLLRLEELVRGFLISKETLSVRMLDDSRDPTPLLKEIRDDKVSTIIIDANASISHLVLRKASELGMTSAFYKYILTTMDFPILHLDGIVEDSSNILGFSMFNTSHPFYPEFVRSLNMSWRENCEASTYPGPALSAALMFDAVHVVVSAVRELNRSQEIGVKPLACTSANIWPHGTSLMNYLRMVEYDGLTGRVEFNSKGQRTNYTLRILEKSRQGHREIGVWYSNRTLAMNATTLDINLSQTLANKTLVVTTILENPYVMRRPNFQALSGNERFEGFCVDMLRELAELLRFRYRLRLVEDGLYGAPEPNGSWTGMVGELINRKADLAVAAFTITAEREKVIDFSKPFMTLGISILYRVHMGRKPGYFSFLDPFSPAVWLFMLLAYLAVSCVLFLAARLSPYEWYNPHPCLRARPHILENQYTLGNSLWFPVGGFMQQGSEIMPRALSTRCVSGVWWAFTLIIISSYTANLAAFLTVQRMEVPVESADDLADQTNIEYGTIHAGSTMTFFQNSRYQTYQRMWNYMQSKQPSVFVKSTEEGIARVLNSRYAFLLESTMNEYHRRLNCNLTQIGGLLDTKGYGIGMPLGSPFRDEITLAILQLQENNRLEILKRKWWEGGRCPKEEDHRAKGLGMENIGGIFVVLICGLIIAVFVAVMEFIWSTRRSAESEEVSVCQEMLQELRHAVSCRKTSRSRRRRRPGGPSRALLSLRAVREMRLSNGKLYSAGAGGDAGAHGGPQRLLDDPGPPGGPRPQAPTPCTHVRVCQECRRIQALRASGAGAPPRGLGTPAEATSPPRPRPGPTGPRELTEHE
Protocol: (§1) Ligand binding affinities at recombinant rat homomeric GluA2, GluK1−3, and GluK5 were determined as previously detailed. […] The filters were dried at 70 °C for 1 h, and 50 μL/well Microscint 20 (PerkinElmer, Waltham, MA, USA) was added. Radioactivity was detected with a TopCounter (PerkinElmer, Waltham, MA, USA). GluA2 and GluK5 assays were filtered on GF/C type filters using Millipore 12-well filtration manifolds (Merck Life Science, Søborg, Denmark) and washed twice with ice-cold assay buffer. Filters were placed in pony vials (PerkinElmer, Waltham, MA, USA), 3 mL of Ultima Gold scintillation fluid (PerkinElmer, Waltham, MA, USA) was added, and DPM (disintegrations per minute) were determined using a TriCarb 2900 scintillation counter (PerkinElmer, Waltham, MA, USA).
(§2) All competition curves (n ≥ 3 per ligand) were determined in triplicate. Data were analyzed using GraphPad Prism 6 (GraphPad Software, San Diego, CA, USA) to determine ligand affinity (Ki) and Hill coefficient (nH) using the one-site Ki and four-parameter logistics equations, respectively.

GluK3 = target: T2, GluK3 (Rattus norvegicus, UniProt P42264); test: Radioligand binding at recombinant homomeric GluK3 in Sf9 membranes; details: recombinant rat homomeric receptor, [3H]-kainic acid, mean ± SEM
T2 construct: made in house; host or cells: Sf9 insect cells (membranes)
T2 sequence (P42264 32-919): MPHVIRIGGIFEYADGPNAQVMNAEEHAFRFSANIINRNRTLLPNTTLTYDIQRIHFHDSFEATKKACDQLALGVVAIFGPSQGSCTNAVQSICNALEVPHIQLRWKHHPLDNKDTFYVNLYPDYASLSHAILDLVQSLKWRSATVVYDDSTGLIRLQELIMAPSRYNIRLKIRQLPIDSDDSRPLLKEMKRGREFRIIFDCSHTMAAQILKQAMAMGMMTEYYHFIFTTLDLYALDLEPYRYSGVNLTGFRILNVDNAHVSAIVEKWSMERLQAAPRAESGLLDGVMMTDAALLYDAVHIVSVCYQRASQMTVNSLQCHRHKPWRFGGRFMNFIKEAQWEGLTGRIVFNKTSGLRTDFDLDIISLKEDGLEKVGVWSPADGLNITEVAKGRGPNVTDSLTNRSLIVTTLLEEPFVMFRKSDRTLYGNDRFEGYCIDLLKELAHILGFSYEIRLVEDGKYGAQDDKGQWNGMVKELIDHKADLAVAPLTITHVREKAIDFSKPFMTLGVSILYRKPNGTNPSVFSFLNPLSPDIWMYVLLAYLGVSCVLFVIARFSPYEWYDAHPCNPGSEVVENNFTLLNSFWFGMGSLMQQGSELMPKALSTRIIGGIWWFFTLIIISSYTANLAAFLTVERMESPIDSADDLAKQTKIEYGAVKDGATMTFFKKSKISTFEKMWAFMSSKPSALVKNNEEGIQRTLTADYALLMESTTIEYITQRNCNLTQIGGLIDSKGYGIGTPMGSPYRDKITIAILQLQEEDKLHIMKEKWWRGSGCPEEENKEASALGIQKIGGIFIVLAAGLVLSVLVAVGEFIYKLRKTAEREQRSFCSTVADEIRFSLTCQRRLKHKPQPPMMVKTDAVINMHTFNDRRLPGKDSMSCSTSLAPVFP
Protocol: as §1, §2

GluK1 = target: T3, GluK1 (Rattus norvegicus, UniProt P22756); test: Radioligand binding at recombinant homomeric GluK1 in Sf9 membranes; details: recombinant rat homomeric receptor, [3H]-(S)-NF608, mean ± SEM
T3 construct: made in house; host or cells: Sf9 insect cells (membranes)
T3 sequence (P22756 31-949): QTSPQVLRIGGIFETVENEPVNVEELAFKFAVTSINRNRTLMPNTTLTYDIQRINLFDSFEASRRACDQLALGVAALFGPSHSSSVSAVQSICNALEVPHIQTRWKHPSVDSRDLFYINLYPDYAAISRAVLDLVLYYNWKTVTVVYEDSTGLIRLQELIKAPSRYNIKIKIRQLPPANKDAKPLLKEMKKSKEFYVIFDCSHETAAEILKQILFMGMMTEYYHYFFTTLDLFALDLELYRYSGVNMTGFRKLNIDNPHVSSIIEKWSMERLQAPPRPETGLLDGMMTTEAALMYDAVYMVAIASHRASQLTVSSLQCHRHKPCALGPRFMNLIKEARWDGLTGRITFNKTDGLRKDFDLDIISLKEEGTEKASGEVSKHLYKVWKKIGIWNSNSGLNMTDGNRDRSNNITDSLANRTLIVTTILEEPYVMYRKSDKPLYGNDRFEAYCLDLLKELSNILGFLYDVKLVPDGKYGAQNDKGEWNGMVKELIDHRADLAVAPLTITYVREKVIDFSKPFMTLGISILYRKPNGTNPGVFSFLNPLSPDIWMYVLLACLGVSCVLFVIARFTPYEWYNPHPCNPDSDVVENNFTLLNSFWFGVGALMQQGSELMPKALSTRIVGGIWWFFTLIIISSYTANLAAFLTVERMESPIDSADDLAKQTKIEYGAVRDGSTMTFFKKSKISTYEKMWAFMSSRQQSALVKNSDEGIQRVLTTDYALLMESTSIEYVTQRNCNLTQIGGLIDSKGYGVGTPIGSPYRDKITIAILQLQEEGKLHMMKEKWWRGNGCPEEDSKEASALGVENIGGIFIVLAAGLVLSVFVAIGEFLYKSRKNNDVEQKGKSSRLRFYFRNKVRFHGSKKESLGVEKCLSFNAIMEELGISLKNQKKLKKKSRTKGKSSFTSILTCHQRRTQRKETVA
Protocol: as §1, §2

GluA2 = target: T4, GluA2 (Rattus norvegicus, UniProt P19491); test: Radioligand binding at recombinant homomeric GluA2 in Sf9 membranes; details: recombinant rat homomeric receptor, [3H]-(RS)-AMPA, mean ± SEM
T4 construct: made in house; host or cells: Sf9 insect cells (membranes)
T4 sequence (P19491 22-883): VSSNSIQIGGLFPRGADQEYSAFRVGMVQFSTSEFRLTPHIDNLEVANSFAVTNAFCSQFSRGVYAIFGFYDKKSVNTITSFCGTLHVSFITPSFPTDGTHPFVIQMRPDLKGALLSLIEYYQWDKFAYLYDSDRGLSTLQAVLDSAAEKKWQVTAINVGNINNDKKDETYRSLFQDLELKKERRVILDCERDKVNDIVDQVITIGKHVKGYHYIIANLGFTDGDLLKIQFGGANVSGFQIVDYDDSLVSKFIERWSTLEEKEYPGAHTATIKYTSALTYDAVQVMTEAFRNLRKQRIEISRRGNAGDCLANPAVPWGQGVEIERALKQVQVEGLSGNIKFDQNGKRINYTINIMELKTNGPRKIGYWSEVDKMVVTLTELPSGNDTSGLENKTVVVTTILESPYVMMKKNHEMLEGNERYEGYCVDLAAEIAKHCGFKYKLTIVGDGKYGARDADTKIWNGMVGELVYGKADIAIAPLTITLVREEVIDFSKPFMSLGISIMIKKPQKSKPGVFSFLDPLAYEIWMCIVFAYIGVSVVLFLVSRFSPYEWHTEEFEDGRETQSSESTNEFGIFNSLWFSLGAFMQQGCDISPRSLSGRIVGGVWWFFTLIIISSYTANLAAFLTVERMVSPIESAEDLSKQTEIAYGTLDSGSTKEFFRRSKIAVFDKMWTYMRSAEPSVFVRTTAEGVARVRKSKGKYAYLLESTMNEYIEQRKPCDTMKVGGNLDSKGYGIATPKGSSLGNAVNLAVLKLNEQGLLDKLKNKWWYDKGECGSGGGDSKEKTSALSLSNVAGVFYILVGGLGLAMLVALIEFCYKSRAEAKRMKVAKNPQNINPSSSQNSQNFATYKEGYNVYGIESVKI
Protocol: as §1, §2

Ki (GluK5): > 100 µM
Ki (GluK3): 0.25 ± 0.01 µM
Ki (GluK1): ~100 µM
Ki (GluA2): > 100 µM
SMILES: O=C(Nn1c(=O)c(=O)[nH]c2cc(C#Cc3cnc4cccnn34)ccc21)c1ccccc1 [Compound 28]
agonist or antagonist activity at mGluR2 (mGluR2): neither agonistic nor antagonistic

Source: article PMC9369419 (International Journal of Molecular Sciences, 2022)
